# Measured values: patent US20240229043A1, “Methods and Compositions for Treating, Ameliorating, and/or Preventing Chronic Kidney Disease (CKD) and Complications thereof by Regulating DPEP1, CASP9, ACSS2 and/or FASN” (THE TRUSTEES OF THE UNIVERSITY OF PENNSYLVANIA, priority 2022, published 2024)
# Entries after “also recorded” stand apart in the source; their conditions may differ.
# Legend:
# primary TECs = test: Cisplatin-treated primary kidney tubule cells from wild-type and Chmp1a+/- mice; assay type: cell-based
# Procedure: For primary culture of renal tubule cells, kidneys were collected from 2- to 4-week-old male mice. Cells were isolated by 2 mg/ml collagenase I (Gibco #17018-029) digestion for 30 min at 37° C. with gentle stirring and filtered through a 100-μm mesh. The cell suspension was cultured in RPMI 1640 (Corning #10-040-CM) supplement with 10% FBS (Atlanta Biologicals #S11950), 20 ng/ml EGF (Peprotech #AF-100-15), 1×ITS (Gibco #51500-056), and 1% penicillin-streptomycin (Corning #30-002-CI) at 5% CO2 and 37° C.
# Primary cultured renal tubule cells or NRK52E cells were incubated with 1 μM transferrin (Thermo Fisher #T13342) for 4 h, or 5 μM mitoSOX (ThermoFisher #M36008) for 10 min, or 2 μM BODIPY™ 581/591 C11 (Thermo Fisher #D3861) for 0.5 h, or 20 ng/ml dextran conjugated to 488 (Thermo Fisher #D22910) for 2 h, at 5% CO2 and 37° C., respectively. After washing with PBS, cells were imaged directly under the confocal or regular fluorescence microscope.
# Mouse primary tubular epithelial cells from wild-type, mutant mice or NRK52E cells were plated in 96-well plate. Transfection of NRK52E cells with siRNA was carried out as described above. […] Cells were harvested and stained with trypan blue (Thermo Fisher #T10282) to visualize dead cells. Cell counts were analyzed in Countess Auto Counter (Invitrogen, C10227). LDH release was quantified using CytoTox 96 Non-Radioactive Cytotoxicity Assay (Promega #G1780). Medium was collected in triplicates, spun down, and incubated in a 96-well plate with the CytoTox reagent for 20-30 min. After adding the stop solution, the absorbance signal was measured at 490 nm in a plate reader. The ratio between dead cell and live cell was calculated through the measurement using MultiTox-Fluor Multiplex Cytotoxicity Assay (Promega #9201). Cells were incubated in assay buffer containing live cell substrate GF-AFC and dead cell substrate bis-AAF-R110 for 30 min at 37° C. The plate fluorescence was measured using a plate reader as following: viability: excitation ˜400 nm; emission ˜505 nm. cytotoxicity: excitation ˜485 nm; emission ˜520 nm.
# mitochondrial ROS = test: MitoTempo in TGF-beta 1 treated primary tubule cells; assay type: cell-based, mice
# Procedure: (§1) Primary cells were cultured on microscopic cover glass overnight until they reached 70% confluency. Cells were incubated in a 5 μM MitoSox (#M36008, Thermo Scientific) solution for 10 min in incubator and processed for imaging and quantifications. Cells were also incubated in 10 μM JC-1 (#T3168, Thermo Scientific) for 10 min and then proceeded with imaging and quantifications.
# Cells cultured as above and pretreated with 100 μM MitoTempo (#SML0737, Sigma) for 2 h, followed by TGF-beta 1 treatments while MitoTempo was still present.
# FASN [1] = target: T1, FASN (Mus musculus, UniProt P19096); assay type: cell-based
# Procedure: The NADPH/NADP+ ratio was calculated according to the manufacturer protocol (#G1009, Promega). Briefly, an equal number of cells were cultured in a 96-well format and starved overnight for TGF-beta 1 treatments. Next, the cells were lysed in 20% DTAB containing Basic solution for 10 min at RT. Samples were processed according to the protocol for measuring NADPH and NADP+ from the same well simultaneously. The absolute and relative NADPH/NADP+ values were calculated according to the manufacturer's formula.
# Reduced and oxidized glutathione levels were measured according to the Glutathione Colorimetric Detection Kit (#EIAGSHC, Thermo Scientific) from the same well after completion of all treatments.
# as §1
# FASN [2] = target: T1, FASN; assay type: in vivo
# Procedure: (§2) Animal studies were approved by the Institutional Animal Care and Use Committee (IACUC) of the University of Pennsylvania. Mice were housed in pathogen free conditions with 12 h dark and light cycle in a temperature- and humidity-controlled environment (23±1). The mice were fed ad libitum with water and rodent standard chow diet. 6- to 7-week-old male and female C57BL/6J mice were used in the study. Mice were randomly assigned to experimental groups for all experiments including drug efficacy studies. To induce kidney injury, the present study employed two widely used kidney disease models including unilateral ureteral obstruction (UUO) and folic acid nephropathy (FAN). UUO surgery experiments were conducted on male and female mice. Briefly, UUO was performed by ligating the right kidney ureter, and the left kidney served as a sham operated kidney. Post-surgical procedures were followed according to the IACUC guidelines. For FAN models, 300 mM sodium bicarbonate (NaHCO3) solution was first made to solubilize folic acid (FA) and injected into male mice (FA 250 mg/kg i.p at single dose). Mice were sacrificed 7 days following injection or surgery. For the drug injection studies, mice were first injected one day before the UUO surgery.
# (§3) Approximately 20-30 mg of kidney tissue was homogenized in SDS-blue loading buffer (#7722, CST) containing 42 mM DTT. Samples were loaded onto the SDS-PAGE gels and run at 100v for 1 h 40 min at RT in Tris-Glycine-SDS buffer. The proteins were transferred onto a PVDF membrane. Membranes were blocked with 3% non-fat dry milk powder in tris-buffer saline containing Tween-20 (TBST) for 30 min at RT. The blots were then incubated with primary antibody overnight at 4OC. After primary antibody incubation, the blots were washed three times with TBST, IRdye-conjugated secondary antibodies were probed for 1 h at RT. Finally, the blots were washed in TBST for three minutes each, 10 min at RT, and scanned at 600, 700, and 800 excitation wavelengths in Li-COR imager (Odysseyφ XF), Image Studio software. The images were quantified for relative abundance in Image J software.
# (§4) The tissues were fixed in formalin, dehydrated by an ethanol gradient (30%, 50%, 75% and 95%) and then submitted to the histology Core in 100% ethanol. Once the tissue was sectioned, H&E and Sirius red staining was performed. Images were acquired in Olympus 5000 microscope with Cell Sense software. Percentage of relative fibrosis was quantified in image J.
# (§5) For the inhibitor studies, littermate mice were randomly assigned to receive either FASNall or ACSS2i. A single dose of 1 mg/ml FASNall was given via i.p injection at 10 mg/kg body weight one day prior to the UUO surgery. Mice were sacrificed 3 days after UUO surgery, and their kidneys were harvested. ACSS2i was injected at 20 mg/kg body weight via i.p injection one day prior to UUO surgery, followed by daily injections for 5 days. Mice sacrificed on the 7th day after UUO surgery.
# FASN [3] = target: T1, FASN
# ACSS2 [4] = target: T2, ACSS2 (Mus musculus, UniProt Q9QXG4); test: UUO mouse model of kidney fibrosis with ACSS2i; assay type: in vivo, mice
# T2 construct: from tissue; host or cells: living C57BL/6J mice; read-outs in kidney
# Procedure: as §2, §3, §4, §5
# ACSS2 [5] = target: ACSS2 (Homo sapiens, UniProt Q9NR19); conditions: cell and animal models; cited from earlier work
# Chain of ACSS2 (Homo sapiens, UniProt Q9NR19) (Q9NR19 whole entry, species assumed): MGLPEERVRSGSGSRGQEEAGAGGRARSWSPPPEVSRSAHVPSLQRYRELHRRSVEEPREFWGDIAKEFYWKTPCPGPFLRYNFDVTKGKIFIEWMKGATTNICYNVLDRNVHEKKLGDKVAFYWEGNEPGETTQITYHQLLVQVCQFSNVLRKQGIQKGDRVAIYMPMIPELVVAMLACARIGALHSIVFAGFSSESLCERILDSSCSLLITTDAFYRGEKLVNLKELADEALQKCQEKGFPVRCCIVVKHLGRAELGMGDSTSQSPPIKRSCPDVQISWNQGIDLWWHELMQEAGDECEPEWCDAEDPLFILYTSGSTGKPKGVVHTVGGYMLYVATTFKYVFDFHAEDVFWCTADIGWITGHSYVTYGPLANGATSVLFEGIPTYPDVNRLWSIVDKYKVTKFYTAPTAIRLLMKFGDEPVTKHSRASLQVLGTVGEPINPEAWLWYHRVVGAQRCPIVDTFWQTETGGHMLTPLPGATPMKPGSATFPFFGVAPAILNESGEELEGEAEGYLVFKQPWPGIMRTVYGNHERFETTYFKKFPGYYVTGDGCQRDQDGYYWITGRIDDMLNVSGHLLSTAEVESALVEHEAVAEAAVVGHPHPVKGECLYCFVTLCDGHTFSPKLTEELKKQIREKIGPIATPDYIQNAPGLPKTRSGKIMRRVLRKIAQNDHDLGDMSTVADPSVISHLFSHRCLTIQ
# T1 sequence (P19096 whole entry): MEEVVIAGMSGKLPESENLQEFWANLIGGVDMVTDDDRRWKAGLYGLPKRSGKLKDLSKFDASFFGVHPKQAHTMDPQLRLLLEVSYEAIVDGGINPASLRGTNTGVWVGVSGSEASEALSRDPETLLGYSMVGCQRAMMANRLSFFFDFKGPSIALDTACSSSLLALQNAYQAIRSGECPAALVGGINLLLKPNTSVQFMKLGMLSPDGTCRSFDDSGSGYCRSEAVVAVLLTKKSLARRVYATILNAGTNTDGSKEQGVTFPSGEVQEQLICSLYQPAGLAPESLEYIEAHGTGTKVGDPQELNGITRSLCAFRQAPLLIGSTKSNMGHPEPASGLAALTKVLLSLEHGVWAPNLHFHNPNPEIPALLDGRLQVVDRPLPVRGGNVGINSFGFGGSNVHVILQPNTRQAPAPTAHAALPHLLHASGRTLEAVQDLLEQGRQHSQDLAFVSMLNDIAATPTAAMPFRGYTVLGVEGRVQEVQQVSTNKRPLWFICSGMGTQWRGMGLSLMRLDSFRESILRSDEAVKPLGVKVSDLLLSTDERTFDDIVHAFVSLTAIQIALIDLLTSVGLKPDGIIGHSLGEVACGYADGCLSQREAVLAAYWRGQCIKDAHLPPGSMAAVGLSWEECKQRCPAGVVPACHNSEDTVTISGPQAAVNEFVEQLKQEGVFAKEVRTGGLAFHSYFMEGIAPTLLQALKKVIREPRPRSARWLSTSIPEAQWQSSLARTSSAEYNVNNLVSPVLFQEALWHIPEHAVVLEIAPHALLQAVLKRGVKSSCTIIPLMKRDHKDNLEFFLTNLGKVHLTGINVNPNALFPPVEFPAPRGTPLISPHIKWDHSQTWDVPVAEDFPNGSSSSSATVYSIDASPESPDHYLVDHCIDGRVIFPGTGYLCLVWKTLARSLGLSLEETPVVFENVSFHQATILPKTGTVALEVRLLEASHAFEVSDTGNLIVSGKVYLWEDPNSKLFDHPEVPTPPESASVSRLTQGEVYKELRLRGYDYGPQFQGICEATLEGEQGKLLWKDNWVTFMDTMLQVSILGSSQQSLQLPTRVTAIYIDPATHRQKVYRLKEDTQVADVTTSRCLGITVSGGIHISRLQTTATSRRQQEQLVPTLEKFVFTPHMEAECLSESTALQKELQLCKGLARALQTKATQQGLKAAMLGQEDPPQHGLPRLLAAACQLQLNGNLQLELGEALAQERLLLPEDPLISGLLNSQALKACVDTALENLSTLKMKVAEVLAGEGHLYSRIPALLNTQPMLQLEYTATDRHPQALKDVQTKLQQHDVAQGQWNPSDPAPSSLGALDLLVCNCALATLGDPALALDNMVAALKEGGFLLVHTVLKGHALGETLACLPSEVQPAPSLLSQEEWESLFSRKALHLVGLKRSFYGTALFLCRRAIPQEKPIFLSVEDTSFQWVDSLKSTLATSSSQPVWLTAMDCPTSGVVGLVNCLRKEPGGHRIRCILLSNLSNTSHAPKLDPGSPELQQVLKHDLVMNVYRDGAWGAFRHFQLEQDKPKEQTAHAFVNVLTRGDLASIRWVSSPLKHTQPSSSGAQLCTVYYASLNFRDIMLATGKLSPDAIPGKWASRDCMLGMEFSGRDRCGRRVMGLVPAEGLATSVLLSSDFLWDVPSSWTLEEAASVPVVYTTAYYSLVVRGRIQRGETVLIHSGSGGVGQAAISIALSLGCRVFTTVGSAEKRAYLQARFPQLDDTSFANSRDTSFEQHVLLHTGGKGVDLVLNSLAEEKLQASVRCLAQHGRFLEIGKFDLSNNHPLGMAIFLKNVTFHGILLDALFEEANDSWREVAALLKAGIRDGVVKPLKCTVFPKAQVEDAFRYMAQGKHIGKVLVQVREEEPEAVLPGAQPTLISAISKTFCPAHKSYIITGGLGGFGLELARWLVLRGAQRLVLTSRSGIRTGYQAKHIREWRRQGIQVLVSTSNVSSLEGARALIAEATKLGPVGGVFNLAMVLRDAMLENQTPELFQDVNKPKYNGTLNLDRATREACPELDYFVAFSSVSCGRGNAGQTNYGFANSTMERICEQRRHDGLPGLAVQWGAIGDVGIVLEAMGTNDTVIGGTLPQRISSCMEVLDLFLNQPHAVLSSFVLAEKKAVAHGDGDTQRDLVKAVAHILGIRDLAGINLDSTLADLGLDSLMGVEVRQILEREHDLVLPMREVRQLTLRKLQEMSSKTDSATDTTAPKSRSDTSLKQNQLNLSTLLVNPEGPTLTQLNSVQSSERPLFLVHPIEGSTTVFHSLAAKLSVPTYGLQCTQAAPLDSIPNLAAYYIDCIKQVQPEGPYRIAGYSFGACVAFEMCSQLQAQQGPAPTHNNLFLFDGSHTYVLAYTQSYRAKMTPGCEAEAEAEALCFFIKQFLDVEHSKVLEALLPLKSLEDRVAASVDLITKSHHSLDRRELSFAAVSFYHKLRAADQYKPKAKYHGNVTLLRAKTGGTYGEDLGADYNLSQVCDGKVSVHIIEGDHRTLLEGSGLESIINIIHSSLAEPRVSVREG
# T2 sequence (Q9QXG4 whole entry): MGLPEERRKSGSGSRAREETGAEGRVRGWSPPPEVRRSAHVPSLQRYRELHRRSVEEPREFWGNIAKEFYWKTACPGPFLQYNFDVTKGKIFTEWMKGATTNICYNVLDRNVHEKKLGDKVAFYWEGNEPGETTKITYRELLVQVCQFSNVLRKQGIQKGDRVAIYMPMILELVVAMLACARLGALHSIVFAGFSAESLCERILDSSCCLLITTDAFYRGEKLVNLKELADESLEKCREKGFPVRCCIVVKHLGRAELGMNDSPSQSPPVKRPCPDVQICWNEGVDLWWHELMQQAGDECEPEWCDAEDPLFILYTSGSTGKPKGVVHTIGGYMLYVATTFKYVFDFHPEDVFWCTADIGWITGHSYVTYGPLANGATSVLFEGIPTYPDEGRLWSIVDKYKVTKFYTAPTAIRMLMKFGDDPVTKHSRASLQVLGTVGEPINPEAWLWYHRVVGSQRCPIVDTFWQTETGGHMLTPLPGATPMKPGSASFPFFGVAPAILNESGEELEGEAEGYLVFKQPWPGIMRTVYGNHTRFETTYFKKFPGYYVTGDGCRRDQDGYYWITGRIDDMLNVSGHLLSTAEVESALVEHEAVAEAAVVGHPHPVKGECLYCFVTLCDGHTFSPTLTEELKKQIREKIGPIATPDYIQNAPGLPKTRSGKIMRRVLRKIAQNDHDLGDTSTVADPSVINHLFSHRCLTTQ
structure (smiles),measurement,setting,value
CC1(C)CC(NC(=O)C[P+](c2ccccc2)(c2ccccc2)c2ccccc2)CC(C)(C)N1[O] [Mito-TEMPO],LDH release induced by cisplatin,primary TECs; Chmp1a+/- primary TECs,markedly lowered
same,lipid peroxidation (C11 BODIPY 581/591) induced by cisplatin,primary TECs; primary TECs from wild-type or Chmp1a+/- mice,markedly lowered
same,"inflammasome activation (IL-1B, IL18, and caspase1 increase)","mitochondrial ROS; following TGF-beta 1 treatment, MitoTempo 100 μM",efficiently lowered
same,TGF-beta 1 induced expression of fibrosis markers / fibrotic genes,mitochondrial ROS; primary TECs,lowered; also recorded: diminished
Cc1sc2ncnc(NC3CCN(Cc4ccccc4)C3)c2c1C (stereo not drawn) [FASNall],less negative mitochondrial membrane potential (monomeric JC-1 accumulation),FASN [1]; TGF-beta 1 treated WT cells,attenuated this effect
same,GSH levels and relative GSH/GSSH ratio,FASN [1]; TGF-beta 1 treated cells,preserved
same,NADPH/NADP+ ratio,FASN [1]; TGF-beta 1 treated tubule cells,preserved
same,Protein levels of FN1 and α-SMA,FASN [2]; UUO kidneys,suppressed; also recorded: lower
same,TGs (TAGs) levels in kidney,FASN [2]; UUO kidneys,prevented; also recorded: lower
same,"fibrosis markers Acta2, Col1a1, Col3a, and Fn1 gene expression",FASN [2]; UUO kidneys,lower
same,"gene expression of NLRP3, IL-1B, IL18, caspase1 and Gsdmd",FASN [2]; UUO kidneys,lower
same,lipid accumulation (Oil red O staining),FASN [2]; UUO kidneys,attenuated; also recorded: lower
same,tissue scarring (Sirius red staining),FASN [2]; UUO kidneys vs vehicle,less
same,tubule atrophy and fibrosis (histological analysis),FASN [2]; UUO kidneys vs vehicle,lower
same,"Protein levels of NLRP3, caspase1, cleaved caspase1 (p20), F-GSDMD, and N-GSDMD",FASN [2]; UUO kidneys vs vehicle treated,lower
same,Fasn and Plin2 expression,"FASN [2]; UUO kidneys, single dose 10 mg/kg i.p., 10 mg/kg",significantly prevented; also recorded: ameliorated
same,kidney injury and fibrosis / kidney disease development,FASN [2]; mice,prevented kidney injury and fibrosis development; also recorded: protect mice from kidney disease development
same,cell death (cell viability),FASN [3],did not increase cell death
COCCNC(=O)Nc1ccc2nc(-c3cccs3)c(-c3cccs3)nc2c1 [ACSS2i],"fibrosis and tubule atrophy (H&E, Sirius red quantification)",ACSS2 [4]; UUO,markedly lower
same,"Gene and protein expression of fibrosis markers (Acta2, Col1a1, Col3a, and Fn1)",ACSS2 [4]; UUO kidney injury,reduced fibrosis; also recorded: protective effect
same,"gene expression of NLRP3, IL-1B, IL18, caspase1 and Gsdmd",ACSS2 [4]; UUO kidneys,lower
same,"lipid accumulation (Fasn, Plin2 expression, TG accumulation)",ACSS2 [4]; UUO kidneys,inhibited
same,"Protein levels of NLRP3, caspase1, cleaved caspase1 (p20), F-GSDMD, and N-GSDMD",ACSS2 [4]; UUO kidneys vs vehicle treated,lower
same,kidney disease development,ACSS2 [4]; mice,protect mice from kidney disease development
same,collagen fibers staining (Sirius Red),ACSS2 [4]; vs vehicle alone,reduced
same,UUO induced kidney injury (H&E analysis),ACSS2 [4]; vs vehicle injected mice,prevented
same,obesity-induced multiple myeloma growth,ACSS2 [5],reduce
